Measured values as given in patent US6335341B1, “Pyridyl-and pyrimidyl-heterocyclic compounds inhibiting oxido squalene-cyclase” (Zeneca Limited, priority 1997, dated 2002).

| melting point | SMILES |
| --- | --- |
| 191 to 193 °C (dec.) | Cc1nccc(N2CCN(CC3CCN(S(=O)(=O)c4ccc(Cl)cc4)CC3)CC2)n1 [Example 1, 1-(4-chlorophenylsulphonyl)-4-[1-(2-methylpyrimidin-4-yl)piperazin-4ylmethyl]piperidine] |
| 163 to 164 °C | O=S(=O)(c1ccc(Br)cc1)N1CCC(CN2CCC(c3ccncc3)CC2)CC1 [Example 3, 1-(4-bromophenylsulphonyl)-4-[4-(4-pyridyl)-1-piperidylmethyl]piperidine] |
| 127 to 128 °C | Cc1nccc(N2CCC(CN3CCN(C(=O)c4ccc(F)cc4)CC3)CC2)n1 [Example 8, 1-(4-fluorobenzoyl)-4-[1-(2-methyl-4-pyrimidinyl)-4-piperidylmethyl]piperazine] |
| 73 to 74 °C | Cc1cc(N2CCC(CN3CCN(S(=O)(=O)c4ccc(Cl)cc4)CC3)CC2)nc(C)n1 [Example 11, 1-(4-chlorophenylsulphonyl)-4-[1-(2,6-dimethylpyrimidin-4-yl)-4-piperidylmethyl]piperazine] |
| 114 to 117 °C | Cc1nccc(N2CCC(O)(CN3CCN(C(=O)c4ccc(F)cc4)CC3)CC2)n1 [Example 15, 1-(4-fluorobenzoyl)-4-[1-(2-methylpyrimidin-4-yl]-4-hydroxy-4-piperidylmethyl]piperazine] |
| 179 to 180 °C | O=S(=O)(c1ccc(Br)cc1)N1CCN(CC2CCN(c3ccncc3)CC2)CC1 [Example 19, 1-(4-bromophenylsulphonyl)-4-[1-(4-pyridyl)piperidin-4-ylmethyl]piperazine] |
| 158 to 159 °C | O=S(=O)(c1ccc(Br)cc1)N1CCN(CC2CCN(c3ccncc3Cl)CC2)CC1 [Example 20, 1-(4-bromophenylsulphonyl)-4-[1-(3-chloro-4-pyridyl)piperidin-4-ylmethyl]piperazine] |
